Here are results for five compounds from patent US5840684A, “Glycopeptide antibiotic derivatives” (Eli Lilly and Company, priority 1995, dated 1998).

In assay [1] the test system is Staphylococcus aureus S13E. The class given is cell-based. How it is done:
(§1) The MIC's were determined using a standard broth micro-dilution assay.

Assay [2] has as its system Staphylococcus aureus SA1199B. The format is cell-based. How it is done: as §1
Assay [3] has as its system Entercoccus faecium 180-1. Put plainly: broth micro-dilution MIC. The format is cell-based. How it is done: as §1
(Dilution methods test growth across graded concentrations, often in twofold steps.)

A further assay concerns Entercoccus faecium 276. Nature of the assay: broth micro-dilution MIC. The format is cell-based. How it is done: as §1
In assay [4] the test system is Staphylococcus aureus 446. Nature of the assay: broth micro-dilution MIC. The class given is cell-based. How it is done:
as §1

The subject of assay [5] is Staphylococcus aureus 447. Nature of the assay: broth micro-dilution MIC. The class given is cell-based. How it is done: as §1
For assay [6], the system named is Staphylococcus aureus 491. Nature of the assay: broth micro-dilution MIC. The format is cell-based. How it is done:
as §1

Assay [7] concerns Staphylococcus aureus SA1199A. Nature of the assay: broth micro-dilution MIC. The class given is cell-based. How it is done: as §1
Assay [8] relates to Staphylococcus aureus SA1199. Put plainly: broth micro-dilution MIC. The class given is cell-based. How it is done:
as §1

The subject of assay [9] is Streptococcus pyogenes C203. Nature of the assay: broth micro-dilution MIC. The class given is cell-based. How it is done: as §1
The test system of a further assay is Entercoccus faecium 180. Nature of the assay: broth micro-dilution MIC. The class given is cell-based. The conditions noted are these: Entercoccus faecium 180. How it is done: (§2) The formula I compounds have in vitro and in vivo activity against Gram-positive pathogenic bacteria. The MIC's were determined using a standard broth micro-dilution assay.
A further assay deals with Entercoccus faecium 2041. Nature of the assay: broth micro-dilution MIC. The format is cell-based. To be noted: Entercoccus faecium 2041. How it is done:
as §2

Assay [10] deals with Enterococcus gallinarum 245. Put plainly: broth micro-dilution MIC. The class given is cell-based. To be noted: Enterococcus gallinarum 245. How it is done:
as §2

Assay [11] deals with Haemophilus influenzae RD. Put plainly: broth micro-dilution MIC. The class given is cell-based. The conditions noted are these: Haemophilus influenzae RD. How it is done: as §2
Assay [12] concerns Staphylococcus epidermidis 270. Put plainly: broth micro-dilution MIC. The class given is cell-based. How it is done:
as §2

The test system of assay [13] is Staphylococcus haemolyticus 105. Put plainly: broth micro-dilution MIC. The format is cell-based. How it is done: as §2
Assay [14] has as its system Staphylococcus haemolyticus 415. Put plainly: broth micro-dilution MIC. The class given is cell-based. How it is done: as §2
The test system of assay [15] is Streptococcus pneumoniae P1. Put plainly: broth micro-dilution MIC. The format is cell-based. How it is done:
as §2

The subject of assay [16] is vancomycin-susceptible enterococci. Nature of the assay: broth micro-dilution, mean geometric MIC. The format is cell-based, Enterococcus faecium and Enterococcus faecalis. To be noted: enterococci, 24-hour incubation.
Assay [17] relates to Staphylococcus aureus 489. Put plainly: broth micro-dilution MIC. The class given is cell-based. How it is done:
as §1

For assay [18], the system named is Staphylococcus aureus X400. Nature of the assay: broth micro-dilution MIC. The class given is cell-based. How it is done: as §1
Assay [19] deals with Staphylococcus aureus X778. Nature of the assay: broth micro-dilution MIC. The class given is cell-based. How it is done: as §1
In assay [20] the test system is vancomycin-resistant enterococci. Nature of the assay: broth micro-dilution, mean geometric MIC. The class given is cell-based, Enterococcus faecium and Enterococcus faecalis. To be noted: enterococci, 24-hour incubation.

SMILES strings stand for the structures. ≈ marks a conversion by molar mass, not a printed value.

For `CNC(CC(C)C)C(=O)NC1C(=O)NC(CC(N)=O)C(=O)NC2C(=O)NC3C(=O)NC(C(=O)NC(C(=O)O)c4cc(O)cc(O)c4-c4cc3ccc4O)C(OC3CC(C)(N)C(O)C(C)O3)c3ccc(c(Cl)c3)Oc3cc2cc(c3OC2OC(CO)C(O)C(O)C2OC2CC(C)(NCc3cc4ccccc4s3)C(O)C(C)O2)Oc2ccc(cc2Cl)C1O` (stereo not drawn) [Compound 19], the MIC was not above 0.06 µg/mL in assay [1]; 1 µg/mL (≈ 0.575 µM) in [2]; not above 0.06 µg/mL in [3]; not above 0.06 µg/mL with Entercoccus faecium 276; 0.5 µg/mL (≈ 0.288 µM) in assay [4]; 1 µg/mL (≈ 0.575 µM) in assay [5]. The MIC in [6] is 2 µg/mL (≈ 1.15 µM); in assay [7], not above 0.06 µg/mL; in [8], 0.5 µg/mL (≈ 0.288 µM); in [9], not above 0.06 µg/mL; against Entercoccus faecium 180, 1 µg/mL (≈ 0.575 µM); in the assay on Entercoccus faecium 2041 it was not above 0.06 µg/mL. Further, the MIC in assay [10] was not above 0.06 µg/mL; in [11], 32 µg/mL (≈ 18.4 µM); in [12] it was 2 µg/mL (≈ 1.15 µM); in [13], 4 µg/mL (≈ 2.3 µM); in assay [14], 8 µg/mL (≈ 4.6 µM); in assay [15], not above 0.06 µg/mL. Moreover, the “mean geometric MIC, Vancomycin Sensitive Strains” value in assay [16] was found to be 0.22 µg/mL.

With `CNC(CC(C)C)C(=O)NC1C(=O)NC(CC(N)=O)C(=O)NC2C(=O)NC3C(=O)NC(C(=O)NC(C(=O)O)c4cc(O)cc(O)c4-c4cc3ccc4O)C(OC3CC(C)(N)C(O)C(C)O3)c3ccc(c(Cl)c3)Oc3cc2cc(c3OC2OC(CO)C(O)C(O)C2OC2CC(C)(NCc3ccc(OCCOCCCl)cc3)C(O)C(C)O2)Oc2ccc(cc2Cl)C1O` (stereo not drawn) [Compound 75], the MIC was 0 µg/mL in [1]; 0.5 µg/mL (≈ 0.277 µM) in assay [2]; not above 0.06 µg/mL in assay [3]; not above 0.06 µg/mL against Entercoccus faecium 276; 2 µg/mL (≈ 1.11 µM) in [4]; 1 µg/mL (≈ 0.554 µM) in assay [5]. The MIC in assay [17] is not above 0.06 µg/mL; in assay [7], not above 0.06 µg/mL; in [8], 2 µg/mL (≈ 1.11 µM); in assay [18], not above 0.06 µg/mL; in assay [19] it was not above 0.06 µg/mL; in assay [9] it was not above 0.06 µg/mL. Further, the MIC against Entercoccus faecium 180 was 0.5 µg/mL (≈ 0.277 µM); against Entercoccus faecium 2041, not above 0.06 µg/mL; in assay [10], 4 µg/mL (≈ 2.22 µM); in assay [11] it was 2 µg/mL (≈ 1.11 µM); in assay [12], 0.5 µg/mL (≈ 0.277 µM); in assay [13] it was 2 µg/mL (≈ 1.11 µM). Also, the MIC is 4 µg/mL (≈ 2.22 µM) in [14] and not above 0.06 µg/mL in assay [15]. Moreover, the “mean geometric MIC, Vancomycin Resistant Strains” value in [20] amounted to 16 µg/mL. Moreover, the “mean geometric MIC, Vancomycin Sensitive Strains” value in [16] came out at 0.50 µg/mL.

For the compound `CNC(CC(C)C)C(=O)NC1C(=O)NC(CC(N)=O)C(=O)NC2C(=O)NC3C(=O)NC(C(=O)NC(C(=O)O)c4cc(O)cc(O)c4-c4cc3ccc4O)C(OC3CC(C)(N)C(O)C(C)O3)c3ccc(c(Cl)c3)Oc3cc2cc(c3OC2OC(CO)C(O)C(O)C2OC2CC(C)(NCCCc3ccc(OC)cc3)C(O)C(C)O2)Oc2ccc(cc2Cl)C1O` (stereo not drawn) [Compound 175], the MIC was not above 0.06 µg/mL in assay [2]; not above 0.06 µg/mL in assay [3]; not above 0.06 µg/mL against Entercoccus faecium 276; 1 µg/mL (≈ 0.574 µM) in [4]; 1 µg/mL (≈ 0.574 µM) in [5]; 0.5 µg/mL (≈ 0.287 µM) in assay [6]. The MIC in [7] is 0.5 µg/mL (≈ 0.287 µM); in [8], not above 0.06 µg/mL; in assay [19], 0.5 µg/mL (≈ 0.287 µM); in [9], 0.5 µg/mL (≈ 0.287 µM); in the assay on Entercoccus faecium 180, 1 µg/mL (≈ 0.574 µM); against Entercoccus faecium 2041, not above 0.06 µg/mL. For the same compound, the MIC in assay [10] worked out at 4 µg/mL (≈ 2.3 µM); in assay [11] it was 16 µg/mL (≈ 9.19 µM); in assay [12], 0.5 µg/mL (≈ 0.287 µM); in assay [13], 2 µg/mL (≈ 1.15 µM); in [14] it was 4 µg/mL (≈ 2.3 µM); in assay [15], 0.5 µg/mL (≈ 0.287 µM). In addition, in assay [20], the “mean geometric MIC, Vancomycin Resistant Strains” value was 9.5 µg/mL. In addition, the “mean geometric MIC, Vancomycin Sensitive Strains” value in assay [16] turned out to be 0.22 µg/mL.

For the compound `CNC(CC(C)C)C(=O)NC1C(=O)NC(CC(N)=O)C(=O)NC2C(=O)NC3C(=O)NC(C(=O)NC(C(=O)O)c4cc(O)cc(O)c4-c4cc3ccc4O)C(OC3CC(C)(N)C(O)C(C)O3)c3ccc(c(Cl)c3)Oc3cc2cc(c3OC2OC(CO)C(O)C(O)C2OC2CC(C)(NCCCCC#Cc3ccccc3)C(O)C(C)O2)Oc2ccc(cc2Cl)C1O` (stereo not drawn) [Compound 235], the MIC is 0.125 µg/mL (≈ 0.0715 µM) in assay [1]; 0.5 µg/mL (≈ 0.286 µM) in [2]; not above 0.06 µg/mL in [3]; 0.125 µg/mL (≈ 0.0715 µM) in the assay with Entercoccus faecium 276; 0.5 µg/mL (≈ 0.286 µM) in assay [4]; 0.5 µg/mL (≈ 0.286 µM) in assay [17]. For the same compound, the MIC in [6] is 0.125 µg/mL (≈ 0.0715 µM); in assay [7], not above 0.06 µg/mL; in assay [18], 0.125 µg/mL (≈ 0.0715 µM); in [19] it was 0.5 µg/mL (≈ 0.286 µM); in assay [9] it was not above 0.06 µg/mL; with Entercoccus faecium 180 it was 0.5 µg/mL (≈ 0.286 µM). For the same compound, the MIC with Entercoccus faecium 2041 was not above 0.06 µg/mL; in assay [10], 1 µg/mL (≈ 0.572 µM); in assay [11], 8 µg/mL (≈ 4.57 µM); in [12], 0.5 µg/mL (≈ 0.286 µM); in assay [13], 0.5 µg/mL (≈ 0.286 µM); in assay [14], 1 µg/mL (≈ 0.572 µM). The MIC in assay [15] is not above 0.06 µg/mL. Further, the “mean geometric MIC, Vancomycin Resistant Strains” value in [20] came out at 2.4 µg/mL.

With `CNC(CC(C)C)C(=O)NC1C(=O)NC(CC(N)=O)C(=O)NC2C(=O)NC3C(=O)NC(C(=O)NC(C(=O)O)c4cc(O)cc(O)c4-c4cc3ccc4O)C(OC3CC(C)(N)C(O)C(C)O3)c3ccc(c(Cl)c3)Oc3cc2cc(c3OC2OC(CO)C(O)C(O)C2OC2CC(C)(NCc3ccc4cc(C)ccc4c3)C(O)C(C)O2)Oc2ccc(cc2Cl)C1O` (stereo not drawn) [Compound 189], the MIC in [1] is 0.5 µg/mL (≈ 0.286 µM); in assay [2] it was 1 µg/mL (≈ 0.573 µM); in [3], not above 0.06 µg/mL; in [4], 0.5 µg/mL (≈ 0.286 µM); in assay [5], 0.5 µg/mL (≈ 0.286 µM); in [17], 1 µg/mL (≈ 0.573 µM). Further, the MIC in assay [6] was not above 0.06 µg/mL; in [7], not above 0.06 µg/mL; in assay [8], 0.5 µg/mL (≈ 0.286 µM); in assay [9] it was not above 0.06 µg/mL; against Entercoccus faecium 2041 it was not above 0.06 µg/mL; in assay [10], 1 µg/mL (≈ 0.573 µM). Further, the MIC in assay [11] was 32 µg/mL (≈ 18.3 µM); in assay [13], 1 µg/mL (≈ 0.573 µM); in [14], 1 µg/mL (≈ 0.573 µM); in [15], not above 0.06 µg/mL. The “mean geometric MIC, Vancomycin Resistant Strains” value in assay [20] was determined as 2.4 µg/mL. The “mean geometric MIC, Vancomycin Sensitive Strains” value in assay [16] amounted to 0.10 µg/mL.
